{"source": "patent US20260159815A1", "about": "“METHODS OF CULTURING CARDIAC CELLS AND USE OF CELLS FOR DISEASE MODELING” (Technion Research & Development Foundation Limited, priority 2023, published 2026)", "tested_on": "iPSC-derived cardiomyocytes", "test": "RT-qPCR of selected sarcomere genes (TNNI1, TNNI3)", "type": "cell-based, human", "conditions": "Torin1 10 nM and 25 nM, maturation media groups (3 mM glucose)", "method": "Gene expression (RT-qPCR): RNA was extracted from cells using […], then reverse transcribed to cDNA with the Iscript™ cDNA Synthesis Kit (Bio-Rad, US). The quantitative polymerase chain reaction was performed using the Lightcycler® 480 SYBR Green I Master (syber green) (Roche, Switzerland).\nCardiomyocyte maturation: hiPSCs were differentiated into cardiomyocytes as follows. On day 0, the hiPSC medium was replaced with CDM3 media supplemented with 6 μM CHIR99021 (R&D Systems, US) to induce differentiation toward a mesodermal fate. After 48 hours the same medium was use, supplemented with 2 μM of Wnt-C59 (Selleck Chemicals, US). After 48 hours, the medium was replaced with RPMI-B27-insulin (Thermo Fisher Scientific, US). On day 10, maturation process was started with the replacement of the medium with maturation media. This process continued for 14 days during which Torin1 was added only in the first 7 days. At the end of the process, several criteria were tested to characterize the maturation of the CMs and the other supporting cells. […]", "data": [{"smiles": "CCC(=O)N1CCN(c2ccc(-n3c(=O)ccc4cnc5ccc(-c6cnc7ccccc7c6)cc5c43)cc2C(F)(F)F)CC1", "note": "[Torin1]", "values": [{"measurement": "TNNI3 mRNA expression", "result": "trended toward increased expression of TNNI3 mRNA expression in a dose-dependent manner"}]}]}
